In one assay the target is wild-type Epidermal Growth Factor Receptor (EGFR) (Homo sapiens (Human), UniProt P00533). Kind of assay: WT-EGFR Kinase Assay (TR-FRET, 2 mM ATP). It is filed as biochemical. As to conditions: EGFR Wildtyp 2 mM ATP IC50 [mol/l] (median), median or individual measurements. An excerpt: Inhibitory activity of compounds of the present invention against wild-type Epidermal Growth Factor Receptor (EGFR) was quantified employing the TR-FRET based EGFR assay as described in the following paragraphs.
Sequence of wild-type Epidermal Growth Factor Receptor (EGFR) (P00533 669-1210): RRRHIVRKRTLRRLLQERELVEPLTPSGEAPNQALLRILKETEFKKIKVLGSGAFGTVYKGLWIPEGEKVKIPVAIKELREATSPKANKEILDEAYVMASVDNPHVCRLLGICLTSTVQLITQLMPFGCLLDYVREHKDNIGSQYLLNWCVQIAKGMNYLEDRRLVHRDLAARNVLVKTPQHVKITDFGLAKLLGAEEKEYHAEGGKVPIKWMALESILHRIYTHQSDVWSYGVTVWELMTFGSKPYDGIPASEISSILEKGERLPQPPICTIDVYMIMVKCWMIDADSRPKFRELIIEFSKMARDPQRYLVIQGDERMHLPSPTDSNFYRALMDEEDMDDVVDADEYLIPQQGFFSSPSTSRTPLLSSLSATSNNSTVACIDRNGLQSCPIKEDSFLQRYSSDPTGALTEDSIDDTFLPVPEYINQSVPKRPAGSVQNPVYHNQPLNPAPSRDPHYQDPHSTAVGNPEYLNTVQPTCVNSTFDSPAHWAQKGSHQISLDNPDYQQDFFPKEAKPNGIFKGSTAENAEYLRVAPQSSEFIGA
Recombinant fusion protein of N-terminal Glutathion-S-Transferase (GST) and a fragment of human EGFR (amino acids R669 to A1210), expressed in Sf9 insect cells and purified via affinity chromatography using Glutathion Sepharose as described above, was used as kinase. As substrate for the kinase reaction the biotinylated peptide biotin-Ahx-[…] (C-terminus in amide form) was used which can be purchased e.g. form the company Biosynthan GmbH (Berlin-Buch, Germany).
For the assay 50 nl of a 100 fold concentrated solution of the test compound in DMSO was pipetted into either a black low volume 384 well microtiter plate or a black 1536 well microtiter plate (both Greiner Bio-One, Frickenhausen, Germany), 2 μL of a solution of EGFR in aqueous assay buffer [50 mM Hepes pH 7.0, 10 mM MgCl2, 1 mM dithiothreitol, 0.5 mM EGTA, 0.3 mM activated sodium ortho-vanadate, 0.005% (w/v) bovine serum albumin, 0.005% (v/v) Tween-20] were added and the mixture was incubated for 15 min at 22° C. to allow pre-binding of the test compounds to the enzyme before the start of the kinase reaction. […] The concentration of EGFR was adjusted depending of the activity of the enzyme lot and was chosen appropriate to have the assay in the linear range, typical concentration was […]. The reaction was stopped by the addition of 3 μL of a solution of HTRF detection reagents (83.3 nM streptavidine-XL665 [Cisbio Bioassays, Codolet, France] and 1.67 nM PT66-Tb-Cryptate, a terbium-cryptate labelled anti-phospho-tyrosine antibody from Cisbio Bioassays [instead of the PT66-Tb-cryptate PT66-Eu-Chelate from Perkin Elmer can also be used]) in an aqueous EDTA-solution (133.3 mM EDTA, 0.2% (w/v) bovine serum albumin in 50 mM HEPES pH 7.5).
The resulting mixture was incubated 1 h at 22° C. to allow the binding of the biotinylated phosphorylated peptide to the streptavidine-XL665 and the PT66-Tb-Cryptate. Subsequently the amount of phosphorylated substrate was evaluated by measurement of the resonance energy transfer from the PT66-Tb-Cryptate to the streptavidine-XL665. Therefore, the fluorescence emissions at 620 nm and 665 nm after excitation at 337 nm were measured in a HTRF reader, e.g. a Pherastar (BMG Labtechnologies, Offenburg, Germany) or a Viewlux (Perkin-Elmer). The ratio of the emissions at 665 nm and at 622 nm was taken as the measure for the amount of phosphorylated substrate.
With `Cc1cn(C)c(=O)c2c(-c3ccc(F)cc3)c(-c3ccnc(NC(=O)C(C)c4ccc(F)cc4)c3)[nH]c12` (racemic) [Example 030, 2-(4-fluorophenyl)-N-{4-[3-(4-fluorophenyl)-5,7-dimethyl-4-oxo-4,5-dihydro-1H-pyrrolo[3,2-c]pyridin-2-yl]pyridin-2-yl}propanamide], the IC50 is more than 20 µM.

`CN1CC(CC2CC2)c2[nH]c(-c3ccnc(NC(=O)Cc4ccc(F)cc4)c3)c(-c3ccc(F)cc3)c2C1=O` (racemic) [Example 061, N-{4-[7-(cyclopropylmethyl)-3-(4-fluorophenyl)-5-methyl-4-oxo-4,5,6,7-tetrahydro-1H-pyrrolo[3,2-c]pyridin-2-yl]pyridin-2-yl}-2-(4-fluorophenyl)acetamide]: the IC50 was 0.818 µM.

In the case of `CC(C(=O)Nc1cc(-c2[nH]c3c(c2-c2ccccc2)C(=O)N(C)C2(CCC2)C3)ccn1)c1ccc(F)cc1` (single isomer, unassigned; (-)) [Example 053, (-)-2-(4-fluorophenyl)-N-[4-(5′-methyl-4′-oxo-3′-phenyl-1′,4′,5′,7′-tetrahydrospiro[cyclobutane-1,6′-pyrrolo[3,2-c]pyridin]-2′-yl)pyridin-2-yl]propanamide], the IC50 was more than 20 µM.

`Cn1cc(CC(F)(F)F)c2[nH]c(-c3ccnc(NC(=O)C(CC(F)F)c4ccc(F)cc4)c3)c(-c3ccc(F)cc3)c2c1=O` (racemic) [Example 026, 4,4-difluoro-2-(4-fluorophenyl)-N-{4-[3-(4-fluorophenyl)-5-methyl-4-oxo-7-(2,2,2-trifluoroethyl)-4,5-dihydro-1H-pyrrolo[3,2-c]pyridin-2-yl]pyridin-2-yl}butanamide] returned an IC50 of more than 20 µM.

`Cc1cn(C)c(=O)c2c(-c3ccc(F)cc3)c(-c3ccnc(NC(=O)C(CC(F)F)c4ccc(F)cc4)c3)[nH]c12` (racemic) [Example 034, 4,4-difluoro-2-(4-fluorophenyl)-N-{4-[3-(4-fluorophenyl)-5,7-dimethyl-4-oxo-4,5-dihydro-1H-pyrrolo[3,2-c]pyridin-2-yl]pyridin-2-yl}butanamide] came in with an IC50 of more than 20 µM.

In turn, `CC(C(=O)Nc1cc(-c2[nH]c3c(CC(F)(F)F)cn(C)c(=O)c3c2-c2ccc(F)cc2)ccn1)c1ccc(F)cc1` (single isomer, unassigned; (-)) [Example 023, (-)-2-(4-fluorophenyl)-N-{4-[3-(4-fluorophenyl)-5-methyl-4-oxo-7-(2,2,2-trifluoroethyl)-4,5-dihydro-1H-pyrrolo[3,2-c]pyridin-2-yl]pyridin-2-yl}propanamide] registered an IC50 of more than 20 µM.

As to `CN1C(=O)c2c([nH]c(-c3ccnc(NC(=O)C(CC(F)F)c4ccc(F)cc4)c3)c2-c2ccccc2)CC12CCC2` (single isomer, unassigned; (-)) [Example 050, (-)-4,4-difluoro-2-(4-fluorophenyl)-N-[4-(5′-methyl-4′-oxo-3′-phenyl-1′,4′,5′,7′-tetrahydrospiro-[cyclobutane-1,6′-pyrrolo[3,2-c]pyridin]-2′-yl)pyridin-2-yl]butanamide], the IC50 was determined as 11.9 µM.

For `Cn1cc(CC2CC2)c2[nH]c(-c3ccnc(NC(=O)C(CC(F)F)c4ccc(F)cc4)c3)c(-c3ccccc3)c2c1=O` (racemic) [Example 060, N-{4-[7-(cyclopropylmethyl)-5-methyl-4-oxo-3-phenyl-4,5-dihydro-1H-pyrrolo[3,2-c]pyridin-2-yl]pyridin-2-yl}-4,4-difluoro-2-(4-fluorophenyl)butanamide], the IC50 is more than 20 µM.

`CC1(C)CNC(=O)c2c1[nH]c(-c1ccnc(NC(=O)C(CC(F)F)c3ccc(F)cc3)c1)c2-c1ccccc1` (racemic) [Example 043, N-[4-(7,7-dimethyl-4-oxo-3-phenyl-4,5,6,7-tetrahydro-1H-pyrrolo[3,2-c]pyridin-2-yl)pyridin-2-yl]-4,4-difluoro-2-(4-fluorophenyl)butanamide] gave an IC50 of more than 20 µM.

In turn, `Cn1cc(CC(F)(F)F)c2[nH]c(-c3ccnc(NC(=O)C(CC(F)F)c4ccc(F)cc4)c3)c(-c3ccc(F)cc3)c2c1=O` (single isomer, unassigned) [Example 027, 4,4-difluoro-2-(4-fluorophenyl)-N-{4-[3-(4-fluorophenyl)-5-methyl-4-oxo-7-(2,2,2-trifluoroethyl)-4,5-dihydro-1H-pyrrolo[3,2-c]pyridin-2-yl]pyridin-2-yl}butanamide] yielded an IC50 of more than 20 µM.

The assay is the same for the next values; noted with them: read-out: EGFR Wildtyp 2 mM ATP IC50 [mol/l] (median), median or individual measurements.
Consider `CN1CC(CC2CC2)c2[nH]c(-c3ccnc(NC(=O)C(CC(F)F)c4ccc(F)cc4)c3)c(-c3ccccc3)c2C1=O` (stereo not shown) [Example 059], for which the IC50 was more than 20 µM.

Consider `Cc1cn(C)c(=O)c2c(-c3ccc(F)cc3)c(-c3ccnc(NC(=O)C(C)c4ccc(F)cc4)c3)[nH]c12` (single isomer, unassigned; (+)) [Example 032, (+)-2-(4-fluorophenyl)-N-{4-[3-(4-fluorophenyl)-5,7-dimethyl-4-oxo-4,5-dihydro-1H-pyrrolo[3,2-c]pyridin-2-yl]pyridin-2-yl}propanamide], for which the IC50 is more than 20 µM.

As to `CN1CCc2[nH]c(-c3ccnc(NC(=O)C(CC(F)F)c4ccc(F)cc4)c3)c(-c3cccnc3)c2C1=O` (single isomer, unassigned) [Example 011, 4,4-difluoro-2-(4-fluorophenyl)-N-{4-[5-methyl-4-oxo-3-(pyridin-3-yl)-4,5,6,7-tetrahydro-1H-pyrrolo[3,2-c]pyridin-2-yl]pyridin-2-yl}butanamide], the IC50 is more than 20 µM.

For the molecule `CN1CCc2[nH]c(-c3ccnc(NC(=O)Cc4ccc(F)cc4)c3)c(-c3cccnc3)c2C1=O` [Example 012, 2-(4-fluorophenyl)-N-{4-[5-methyl-4-oxo-3-(pyridin-3-yl)-4,5,6,7-tetrahydro-1H-pyrrolo[3,2-c]pyridin-2-yl]pyridin-2-yl}acetamide], the IC50 was more than 20 µM.

In the case of `CC1(C)CNC(=O)c2c1[nH]c(-c1ccnc(NC(=O)C(CC(F)F)c3ccc(F)cc3)c1)c2-c1ccccc1` (single isomer, unassigned) [Example 045, N-[4-(7,7-dimethyl-4-oxo-3-phenyl-4,5,6,7-tetrahydro-1H-pyrrolo[3,2-c]pyridin-2-yl)pyridin-2-yl]-4,4-difluoro-2-(4-fluorophenyl)butanamide], the IC50 is more than 20 µM.

As to `Cc1cn(C)c(=O)c2c(-c3ccc(F)cc3)c(-c3ccnc(NC(=O)C(CC(F)F)c4ccc(F)cc4)c3)[nH]c12` (single isomer, unassigned; (+)) [Example 036, (+)-4,4-difluoro-2-(4-fluorophenyl)-N-{4-[3-(4-fluorophenyl)-5,7-dimethyl-4-oxo-4,5-dihydro-1H-pyrrolo[3,2-c]pyridin-2-yl]pyridin-2-yl}butanamide], the IC50 was more than 20 µM.

For the molecule `CN1CC(CC(F)(F)F)c2[nH]c(-c3ccnc(NC(=O)C(CC(F)F)c4ccc(F)cc4)c3)c(-c3ccc(F)cc3)c2C1=O` (stereo not shown) [Example 025], the IC50 is more than 20 µM.

Consider `CC(C(=O)Nc1cc(-c2[nH]c3c(c2-c2ccc(F)cc2)C(=O)N(C)CC3CC(F)(F)F)ccn1)c1ccc(F)cc1` (stereo not shown) [Example 021], for which the IC50 was more than 20 µM.

For the molecule `CC(C(=O)Nc1cc(-c2[nH]c3c(c2-c2ccccc2)C(=O)N(C)CC3CC(F)(F)F)ccn1)c1ccc(F)cc1` (stereo not shown) [Example 013], the IC50 was more than 20 µM.

Values taken from US20230322767A1, “ARYL SUBSTITUTED PYRROLO-PYRIDINONES AND THERAPEUTIC USES THEREOF” (Bayer Aktiengesellschaft, priority 2020, published 2023).
